Laboratory results taken from ChEMBL document CHEMBL6121002, “Discovery of novel bicyclic and tricyclic cyclohepta[b]thiophene derivatives as multipotent AChE and BChE inhibitors, in-Vivo and in-Vitro assays, ADMET and molecular docking simulation” (Eur J Med Chem, 2025).
Calls of active or inactive are those of the source. The rule behind the calls is not given here.

Columns and labels:
[1] = molecular target: Acetylcholinesterase (Homo sapiens, UniProt P22303); assay: Inhibition of AChE (unknown origin) incubated for 40 mins in presence of substrate
Sequence of Acetylcholinesterase (P22303 whole entry): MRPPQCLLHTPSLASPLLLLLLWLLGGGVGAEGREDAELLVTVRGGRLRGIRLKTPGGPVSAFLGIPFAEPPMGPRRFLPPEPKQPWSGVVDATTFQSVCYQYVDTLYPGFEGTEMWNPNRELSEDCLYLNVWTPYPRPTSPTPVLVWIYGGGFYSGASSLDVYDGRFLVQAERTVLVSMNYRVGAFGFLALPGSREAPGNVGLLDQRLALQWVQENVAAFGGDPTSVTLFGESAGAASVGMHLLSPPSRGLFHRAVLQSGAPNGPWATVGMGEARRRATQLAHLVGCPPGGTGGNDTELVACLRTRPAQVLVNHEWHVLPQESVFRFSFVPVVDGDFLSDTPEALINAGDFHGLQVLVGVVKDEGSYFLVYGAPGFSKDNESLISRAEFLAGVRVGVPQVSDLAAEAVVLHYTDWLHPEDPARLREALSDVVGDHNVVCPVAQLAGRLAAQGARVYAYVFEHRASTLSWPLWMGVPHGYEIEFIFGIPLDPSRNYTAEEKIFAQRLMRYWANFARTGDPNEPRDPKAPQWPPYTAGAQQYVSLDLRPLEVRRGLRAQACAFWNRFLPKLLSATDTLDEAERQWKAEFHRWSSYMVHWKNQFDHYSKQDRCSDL

[2] = test system: Rattus norvegicus; assay: Antialzheimer activity in AlCl3-induced learning and memory impairment in Sprague-Dawley rat assessed as increase in time spent in target quadrant at 30 mg/kg, po measured after 5 weeks by […]; assay type: functional, organism-based
[3] = test system: Rattus norvegicus; assay: Antialzheimer activity in AlCl3-induced learning and memory impairment in Sprague-Dawley rat assessed as fold increase in dopamine level in brain tissue at 30 mg/kg, po measured after 5 weeks by fluorometric analysis relative to control; assay type: functional
[4] = test system: Rattus norvegicus; assay: Antialzheimer activity in AlCl3-induced learning and memory impairment in Sprague-Dawley rat assessed as time taken for memory at 30 mg/kg, po measured after 5 weeks by MWM test (reference value: 6.833 +/- 0.79 sec); assay type: functional
[5] = molecular target: Cholinesterase (Homo sapiens, UniProt P06276); assay: Inhibition of BChE (unknown origin) using butyrylthiocholine iodide as substrate incubated for 20 mins by fluorescence based assay
Sequence of Cholinesterase (P06276 whole entry): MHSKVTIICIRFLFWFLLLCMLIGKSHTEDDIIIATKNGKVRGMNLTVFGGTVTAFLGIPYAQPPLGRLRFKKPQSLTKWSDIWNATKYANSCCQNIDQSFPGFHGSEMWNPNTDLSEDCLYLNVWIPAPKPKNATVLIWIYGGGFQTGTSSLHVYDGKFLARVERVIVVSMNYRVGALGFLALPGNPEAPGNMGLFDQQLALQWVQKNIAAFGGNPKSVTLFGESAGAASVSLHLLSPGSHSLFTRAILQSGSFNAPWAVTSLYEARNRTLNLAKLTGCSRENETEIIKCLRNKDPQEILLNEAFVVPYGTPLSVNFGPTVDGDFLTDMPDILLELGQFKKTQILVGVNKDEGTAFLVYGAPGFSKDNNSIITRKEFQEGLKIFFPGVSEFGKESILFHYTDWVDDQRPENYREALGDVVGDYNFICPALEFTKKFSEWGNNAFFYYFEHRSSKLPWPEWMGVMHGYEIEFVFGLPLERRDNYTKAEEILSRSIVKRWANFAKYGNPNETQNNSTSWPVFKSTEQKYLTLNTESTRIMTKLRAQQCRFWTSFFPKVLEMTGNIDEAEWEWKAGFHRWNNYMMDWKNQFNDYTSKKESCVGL

[6] = test system: Rattus norvegicus; assay: Antialzheimer activity in AlCl3-induced learning and memory impairment in Sprague-Dawley rat assessed as time taken for learning at 30 mg/kg, po measured after 5 weeks by MWM test (reference value: 53.67 +/- 1.05 sec); assay type: functional
[7] = test system: Rattus norvegicus; assay: Antialzheimer activity in AlCl3-induced learning and memory impairment in Sprague-Dawley rat assessed as spontaneous alternation at 30 mg/kg, po measured after 5 weeks by Y-maze test (reference value: 50 +/- 2.89 %); assay type: functional
[8] = test system: Rattus norvegicus; assay: Antialzheimer activity in AlCl3-induced learning and memory impairment in Sprague-Dawley rat assessed as reduction in TNF-alpha level in brain tissue at 30 mg/kg, po measured after 5 weeks by ELISA relative to control; assay type: functional; design: scale not given: the % may be the effect or the level left
[9] = Selectivity index, ratio of IC50 for BChE (unknown origin) using butyrylthiocholine iodide as substrate to IC50 for AChE (unknown origin)
[10] = test system: Rattus norvegicus; assay: Antialzheimer activity in AlCl3-induced learning and memory impairment in Sprague-Dawley rat assessed as fold decrease in AChE level in brain tissue at 30 mg/kg, po measured after 5 weeks by fluorometric analysis relative to control; assay type: functional
[11] = test system: Rattus norvegicus; assay: Antialzheimer activity in AlCl3-induced learning and memory impairment in Sprague-Dawley rat assessed as fold increase in norepinephrine level in brain tissue at 30 mg/kg, po measured after 5 weeks by fluorometric analysis relative to control; assay type: functional
[12] = test system: Rattus norvegicus; assay: Antialzheimer activity in AlCl3-induced learning and memory impairment in Sprague-Dawley rat assessed as fold increase in time spent in target quadrant at 30 mg/kg, po measured after 5 weeks by […] relative to control; assay type: functional
[13] = test system: Rattus norvegicus; assay: Antialzheimer activity in AlCl3-induced learning and memory impairment in Sprague-Dawley rat assessed as reduction in escape latency time at 30 mg/kg, po measured after 5 weeks by MWM test relative to control; assay type: functional; design: scale not given: the % may be the effect or the level left
[14] = test system: Rattus norvegicus; assay: Antialzheimer activity in AlCl3-induced learning and memory impairment in Sprague-Dawley rat assessed as fold increase in 5-HT level in brain tissue at 30 mg/kg, po measured after 5 weeks by fluorometric analysis relative to control; assay type: functional

Row | Structure (SMILES) | IC50 [1] [µM] | Activity [2] | fold change (FC) [3] | Time [4] [s] | IC50 [5] [µM] | Time [6] [s] | Activity [7] [%] | Activity [8] [%] | Ratio IC50 [9] | fold change (FC) [10] | fold change (FC) [11] | fold change (FC) [12] | Activity [13] | fold change (FC) [14]
1 | CCOC(=O)c1c(OC(=O)c2ccccc2)sc2c1CCCCC2 | 2.16 | Active | 1.7 | 24.17 | 7.5 | 37 | 63.5 | 43.8 | 3.47 |  |  |  |  | 
2 | O=C1c2c(sc3c2CCCCC3)OC(c2ccccc2)N1c1ccc(Cl)cc1 (stereo not drawn) | 9.48 | Active | 1.7 | 35.5 | 24.7 | 25.67 | 71.5 | 54.5 | 2.6 | 2.3 | 1.7 | 5.2 | <=47% | 
3 | O=C1c2c(sc3c2CCCCC3)OC(c2ccc(Cl)cc2)N1c1ccccc1 (stereo not drawn) | 0.55 | Active | 1.7 | 36.83 | 6.9 | 24.67 | 73.83 | 54.6 | 12.6 | 2.3 | 1.7 | 5.4 | <=46% | 
4 | CCOC(=O)c1c(OC(=O)c2ccc(Cl)cc2)sc2c1CCCCC2 | 1.05 | Active | 1.7 | 27.67 | 2.9 | 34 | 70.67 | 49.2 | 2.76 |  |  |  |  | 
5 | COc1cc2c(cc1OC)C(=O)C(CC1CCN(Cc3ccccc3)CC1)C2 (stereo not drawn) [DONEPEZIL] |  | Active |  | 42.67 |  | 14.78 | 85 | 63 |  |  |  |  | 28% | 
6 | COc1ccc(N2C(=O)c3c(sc4c3CCCCC4)OC2c2ccc(Cl)cc2)cc1 (stereo not drawn) | 3.14 | Active | 3.8 | 41.67 | 7.76 | 16.33 | 85 | 70.8 | 2.47 |  | 2.9 | 5.9 | 30% | 5.1
7 | O=C1c2c(sc3c2CCCCC3)OC(c2ccccc2)N1c1ccccc1 (stereo not drawn) | 0.51 | Active | 3.8 | 35.83 | 2.48 | 17 | 80 | 61.2 | 4.86 | 3.5 | 2.2 | 5.3 | 32% | 4.5
8 | O=C1c2c(sc3c2CCCCC3)OC(c2ccc(Cl)cc2)N1c1ccc(Cl)cc1 (stereo not drawn) | 12.6 | Active | 4.2 | 46.5 | 308 | 11.83 | 83.33 | 73.9 | 24.4 |  | ~3.2 | 6.5 | 22% | 5.8
9 | COc1ccc(N2C(=O)c3c(sc4c3CCCCC4)OC2c2ccccc2)cc1 (stereo not drawn) | 4.05 | Active | 3.5 | 38.17 | 11 | 23 | 74.33 | 62.6 | 2.73 | 2.3 | 1.7 | 5.6 | <=43% | 
